From patent US9012500B2, “PKC-ε activator” (Nishizaki Bioinformation Research Institute, priority 2010, dated 2015)

Assays:
[1] = tested on: senescence-accelerated mouse (SAMP8); assay: Water maze test in senescence-accelerated mouse (SAMP8); format: in vivo; details: 8 days
Experimental: Using senescence-accelerated mouse (accelerated-senescence-prone mice 8: SAMP8) and normal senescence mouse (accelerated-senescence-resistant mice 1: SAMR1) as a control thereof, a water maze test was performed. Male SAMP8 and SAMR1 (22- to 25-week-old) were available from Takeda Pharmaceutical Company Limited (Osaka, Japan). The mice were individually raised in a cage at 23±1° C., 12 hr light/dark cycle (lighted at 7:00 am), and allowed to freely ingest feed (solid feed) and water.
Racemate DCP-LA and 4 optical isomers DCP-LA (α,α-, α,β-, β,α-, β,β-DCP-LA), each dissolved in 0.1 ml polyethylene glycol (PEG), or 0.1 ml PEG were orally administered once a day from the day when the water maze test was started. For each group, the water maze test was performed twice a day for 8 days, and the time required to reach a platform (acquisition latency) was measured.
For the water maze test, a circular plastic water tank (diameter 90 cm, depth 36 cm) was used. The inside of the water tank was completely painted in black, and dark water with India ink was filled up to 20 cm from the bottom (22° C.). A platform (diameter 11 cm) painted in black was placed in water such that it was 1 cm below the water surface. The water tank was placed in a test room, and several marks seen by the mice from the water tank were put thereon. During the test, the position of the marks was not changed. A platform was placed a predetermined position from the equal distance from the center and the end of the water tank, namely, center of one quadrant. At one of the randomly selected 5 points, the mouse was released facing the wall of the water tank, and the time necessary for evacuating on the platform (acquisition latency) was measured. When smoothly evacuated, the mouse was left on the platform for 10 seconds. From the day of water maze test and during the test, polyethylene glycol (PEG) alone or racemate DCP-LA (1 mg/kg), α,α-DCP-LA (0.25 mg/kg), α,β-DCP-LA (0.25 mg/kg), β,α-DCP-LA (0.25 mg/kg), or β,β-DCP-LA (0.25 mg/kg), each dissolved in PEG, was orally administered every day. The water maze test was performed twice a day, and the second test was started at 2 min from the first test. The test was continuously performed for 8 days, and the average value (±SEM) of acquisition latency of continuous 2 days until the mouse reached the platform was calculated (each n=5).

[2] = biological target: T1, PKC-ε (Homo sapiens, UniProt Q02156); details: non-patent document 1; cited from earlier work
T1 sequence (Q02156 1-737): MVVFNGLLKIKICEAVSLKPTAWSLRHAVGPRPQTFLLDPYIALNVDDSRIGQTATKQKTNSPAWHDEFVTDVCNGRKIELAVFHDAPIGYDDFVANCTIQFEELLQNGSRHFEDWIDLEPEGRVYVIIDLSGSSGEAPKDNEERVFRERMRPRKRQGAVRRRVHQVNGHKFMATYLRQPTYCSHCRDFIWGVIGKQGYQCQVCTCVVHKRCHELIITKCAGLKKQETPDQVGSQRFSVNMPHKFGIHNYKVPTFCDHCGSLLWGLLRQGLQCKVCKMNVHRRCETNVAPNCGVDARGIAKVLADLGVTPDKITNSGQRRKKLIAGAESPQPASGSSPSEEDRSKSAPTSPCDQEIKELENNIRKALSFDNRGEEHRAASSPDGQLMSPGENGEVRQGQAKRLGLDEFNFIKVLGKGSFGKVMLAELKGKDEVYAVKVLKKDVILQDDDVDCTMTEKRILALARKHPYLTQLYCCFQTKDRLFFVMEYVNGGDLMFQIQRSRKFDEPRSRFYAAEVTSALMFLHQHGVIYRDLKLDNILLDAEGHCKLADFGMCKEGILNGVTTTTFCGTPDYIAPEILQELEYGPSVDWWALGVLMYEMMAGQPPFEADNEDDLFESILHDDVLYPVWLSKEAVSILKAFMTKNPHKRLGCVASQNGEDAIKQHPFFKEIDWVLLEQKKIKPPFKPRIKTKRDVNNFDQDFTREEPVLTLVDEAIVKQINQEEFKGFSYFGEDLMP

[3] = tested on: senescence-accelerated mouse; details: non-patent document 2; cited from earlier work
[4] = tested on: hippocampus nerve cells; details: non-patent document 3; cited from earlier work
[5] = tested on: amyloid β peptide- or scopolamine-treated rat; details: non-patent document 4; cited from earlier work
[6] = biological target: α7 nicotinic acetylcholine receptor (Homo sapiens, UniProt P36544); details: α7 nicotinic acetylcholine receptor at the glutamatergic presynaptic terminal as target, non-patent document 5; cited from earlier work
[7] = tested on: nerve cell; details: patent document 2; cited from earlier work
[8] = tested on: glutamic acid release from the hippocampus; assay: Glutamic acid release from rat hippocampus sections (HPLC); format: cell-based
[9] = tested on: dopamine release from the striatum; assay: Dopamine release from rat striatum sections (HPLC); format: cell-based
[10] = tested on: serotonin release from the hypothalamus; assay: Serotonin release from rat hypothalamus sections (HPLC); format: cell-based
[11] = SAMP8, 0.25 mg/kg orally once a day

Chain of α7 nicotinic acetylcholine receptor (P36544 23-502): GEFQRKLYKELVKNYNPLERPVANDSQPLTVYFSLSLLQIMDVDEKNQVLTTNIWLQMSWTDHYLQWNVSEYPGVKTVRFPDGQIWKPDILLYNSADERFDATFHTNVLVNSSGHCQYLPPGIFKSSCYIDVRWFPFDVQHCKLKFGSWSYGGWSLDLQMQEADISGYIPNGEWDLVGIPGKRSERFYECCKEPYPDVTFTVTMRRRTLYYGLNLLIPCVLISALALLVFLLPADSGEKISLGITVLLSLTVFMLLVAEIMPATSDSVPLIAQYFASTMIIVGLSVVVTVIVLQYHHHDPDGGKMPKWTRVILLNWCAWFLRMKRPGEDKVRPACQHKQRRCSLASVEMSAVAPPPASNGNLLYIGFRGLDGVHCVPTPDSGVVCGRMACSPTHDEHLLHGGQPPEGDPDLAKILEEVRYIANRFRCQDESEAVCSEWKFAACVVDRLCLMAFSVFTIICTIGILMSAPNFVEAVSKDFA

Structure (SMILES): CCCCCC1CC1CC1CC1CCCCCCCC(=O)O (racemic) [racemate DCP-LA, 8-(2-(2-pentyl-cyclopropylmethyl)-cyclopropyl)-octanoic acid]
- acquisition latency as compared to the PEG administration group ([1]; SAMP8, 1 mg/kg orally once a day): shortened acquisition latency
- PKC-ε activation [2]: selectively and directly activates PKC-ε
- cognitive dysfunction of senescence-accelerated mouse [3]: improves cognitive dysfunction
- release of γ aminobutyric acid from hippocampus nerve cells [4]: increases release of γ aminobutyric acid
- cognitive dysfunction of amyloid β peptide- or scopolamine-treated rat [5]: improves cognitive dysfunction
- hippocampus synaptic transmission [6]: promotes hippocampus synaptic transmission
- nerve cell death induced by oxidative stress [7]: suppress nerve cell death

Structure (SMILES): CN(C)CCCn1cc(C2=C(c3c[nH]c4ccccc34)C(=O)NC2=O)c2ccccc21 [GF109203X, reference compound]
- effect of inhibitor on α,β-DCP-LA enhancement of nicotine-caused glutamic acid release ([8]; inhibitor 100 nM, FIG. 9): inhibited
- effect of inhibitor on α,β-DCP-LA enhancement of nicotine-caused dopamine release ([9]; inhibitor 100 nM, FIG. 12): inhibited
- effect of inhibitor on α,β-DCP-LA enhancement of nicotine-caused serotonin release ([10]; inhibitor 100 nM, FIG. 15): inhibited

Structure (SMILES): CN1CCCC1c1cccnc1 (centres unmarked) [nicotine, reference compound]
- glutamic acid release, substance alone vs non-treated group [8]: did not show a remarkable difference
- dopamine release, substance alone vs non-treated group [9]: did not show a remarkable difference
- serotonin release, substance alone vs non-treated group [10]: did not show a remarkable difference

Structure (SMILES): CCCCC[C@@H]1C[C@@H]1C[C@H]1C[C@@H]1CCCCCCCC(=O)O [α,α-DCP-LA, 8-[(1S,2R)-2-{(1R,2R)-2-pentylcyclopropylmethyl}-cyclopropyl]octanoic acid]
- acquisition latency as compared to the PEG administration group [1, 11]: shortened acquisition latency
- acquisition latency as compared to the racemate DCP-LA (1 mg/kg) administration group [1, 11]: significantly shortened acquisition latency

Structure (SMILES): CCCCC[C@H]1C[C@H]1C[C@H]1C[C@@H]1CCCCCCCC(=O)O [β,α-DCP-LA, 8-[(1S,2R)-2-{(1S,2S)-2-pentylcyclopropylmethyl}-cyclopropyl]octanoic acid]
- acquisition latency as compared to the PEG administration group [1, 11]: shortened acquisition latency

Structure (SMILES): CCCCC[C@H]1C[C@H]1C[C@@H]1C[C@H]1CCCCCCCC(=O)O [β,β-DCP-LA, 8-[(1R,2S)-2-{(1S,2S)-2-pentylcyclopropylmethyl}-cyclopropyl]octanoic acid]
- acquisition latency as compared to the PEG administration group [1, 11]: shortened acquisition latency
